Laboratory results as given in US9566351B2, “Molecular containers and methods of making and using same” (University of Maryland, College Park, priority 2010, dated 2017).
“And” between values parts separate entries of the source, which are not always exact repeats. Equal entries are not always repeated. Where two headings read alike, the source gives them in different places. One block for each molecule: values may come before it.

Tests used:
[1] = system: S. typhimurium strain TA1535; details: Salmonella typhimurium, 10 μg/plate
[2] = system: TA98 strain; details: Salmonella typhimurium
[3] = system: TA100; details: Salmonella typhimurium, 10 μg/plate
[4] = system: TA1537 strain; assay: Ames test, strain TA1537
[5] = mouse, in vivo, iv, 3.2 mg/kg
[6] = mouse, in vivo
[7] = Pharmacokinetic study of Motor1.ABZ, IV route (plasma, HPLC); details: for plasma concentration: IV
[8] = Pharmacokinetic study of Motor1.ABZ, IP route (plasma, HPLC); details: for plasma concentration: IP
[9] = aqueous solution; cited from earlier work
[10] = drug with Motor1; 20 mM sodium phosphate buffer (pH=7.4); phase diagram
[11] = guest with Motor1; 20 mM sodium phosphate, pH = 7.4; direct UV/Vis titration (dyes) or indicator displacement
[12] = system: HEK293; details: human, 48 h, 1 mM
[13] = system: HEK293; details: human, 48 h, 1 mM; remark: listed apart in the source
[14] = system: HepG2; details: human, 48 h, 1 mM
[15] = Phase-solubility of pharmaceutical agents with Motor2 (1H NMR); details: drug solubilized with Motor2; 20 mM sodium phosphate buffer (pH=7.4); phase diagram
[16] = system: Hela; assay: In vitro bioactivity of Paclitaxel complexed with Motor1, Hela; format: cell-based; details: Paclitaxel 0.6 mM complexed, Paclitaxel 0.002 mM alone, Motor1 5 mM alone
[17] = system: MCF-7; assay: In vitro bioactivity of Paclitaxel complexed with Motor1, MCF-7; format: cell-based; details: Paclitaxel 0.6 mM complexed, Paclitaxel 0.002 mM alone, Motor1 5 mM alone
[18] = Motor1 toward drug; 1:1 inclusion complex; Ka=Slope/[S0(1−Slope)]
[19] = Motor2 toward drug; 1:1 inclusion complex; Ka=Slope/[S0(1−Slope)]
[20] = system: HepG2; assay: AK (adenylate kinase) release cytotoxicity assay, HepG2; format: cell-based, human; details: 1 mM, untreated population 60%
[21] = system: TA100; assay: Ames test, strain TA100; details: −S9
[22] = system: S. typhimurium strain TA1535; assay: Ames test, strain TA1535; details: −S9
[23] = clinical evaluation; cited from earlier work
[24] = target: T1, hERG (Homo sapiens, UniProt Q12809); details: transfected HEK-293 cells; HP-β-CD up to 4.2 mg/mL; cited from earlier work
T1 construct: host or cells: transfected HEK-293 cells
T1 sequence (Q12809 whole entry): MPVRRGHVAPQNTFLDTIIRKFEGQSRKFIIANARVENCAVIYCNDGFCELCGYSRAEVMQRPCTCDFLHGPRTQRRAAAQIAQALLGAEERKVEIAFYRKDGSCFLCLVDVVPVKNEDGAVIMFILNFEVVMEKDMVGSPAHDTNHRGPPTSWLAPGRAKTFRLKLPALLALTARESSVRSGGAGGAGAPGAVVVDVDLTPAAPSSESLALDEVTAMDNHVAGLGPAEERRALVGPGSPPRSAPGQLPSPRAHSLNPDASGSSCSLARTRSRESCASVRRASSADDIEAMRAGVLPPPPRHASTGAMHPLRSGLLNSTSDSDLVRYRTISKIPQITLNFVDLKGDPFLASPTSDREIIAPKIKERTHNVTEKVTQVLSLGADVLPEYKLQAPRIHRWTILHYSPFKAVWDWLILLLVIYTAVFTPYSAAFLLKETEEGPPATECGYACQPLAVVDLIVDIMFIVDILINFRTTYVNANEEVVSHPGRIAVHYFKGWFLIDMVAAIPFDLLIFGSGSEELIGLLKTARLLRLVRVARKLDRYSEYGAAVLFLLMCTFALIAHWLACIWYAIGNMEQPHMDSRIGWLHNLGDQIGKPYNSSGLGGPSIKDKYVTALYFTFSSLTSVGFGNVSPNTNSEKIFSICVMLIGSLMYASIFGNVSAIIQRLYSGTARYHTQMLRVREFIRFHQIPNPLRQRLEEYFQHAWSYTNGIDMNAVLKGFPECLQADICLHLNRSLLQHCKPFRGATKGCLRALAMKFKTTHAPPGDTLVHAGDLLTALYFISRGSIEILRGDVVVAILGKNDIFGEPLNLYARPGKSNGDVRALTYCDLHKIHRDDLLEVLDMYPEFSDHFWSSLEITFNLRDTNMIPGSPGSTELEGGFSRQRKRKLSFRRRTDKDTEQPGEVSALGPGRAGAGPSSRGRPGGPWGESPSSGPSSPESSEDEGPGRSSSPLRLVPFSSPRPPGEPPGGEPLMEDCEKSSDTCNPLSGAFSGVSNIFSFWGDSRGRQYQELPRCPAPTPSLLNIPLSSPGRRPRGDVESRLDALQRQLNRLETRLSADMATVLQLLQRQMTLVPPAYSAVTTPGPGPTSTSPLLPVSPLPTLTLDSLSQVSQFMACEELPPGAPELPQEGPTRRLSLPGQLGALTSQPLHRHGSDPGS

[25] = IV Route, Motor1.ABZ (681 and 3.2 mg/kg)

Molecule: Nc1ccc2cc3ccccc3cc2c1 [2-aminoanthracene]
- revertant colonies, positive control [1]: 27 colonies
- revertant colonies, positive control ([2]; 10 μg/plate): 1084 colonies
- revertant colonies, positive control [3]: 1345 colonies
- revertant colonies, positive control ([4]; +S9): 122 colonies

- tmax [5]: 2 h
- Absolute Bioavailability (%) [6]: 81%
- tmax ([6]; ip, 3.2 mg/kg): 2 h
Molecule: CCCS(=O)(=O)c1ccc2nc(NC(=O)OC)[nH]c2c1 [ABZSO2, albendazole sulfone]

Molecule: CCC[S+]([O-])c1ccc2[nH]c(NC(=O)OC)nc2c1 (stereo not drawn) [ABZSO, albendazole sulfoxide]
- AUC [7, 25]: 14.30 µg·h/mL
- tmax [7, 25]: 0.5 h
- Cmax ([7]; IV Route, one injection of Motor1.ABZ (681 and 3.2 mg/kg), plasma): 4.34 µg/mL
- plasma concentration ([7]; t = 5 min, individual mice (duplicates a, b)): 2.31 µg/mL and 2.97 µg/mL and 1.93 µg/mL and 1.84 µg/mL and 2.74 µg/mL and 2.63 µg/mL and 2.03 µg/mL and 2.07 µg/mL and 2.33 µg/mL
- plasma concentration ([7]; t = 15 min, individual mice): 3.36 µg/mL and 3.37 µg/mL and 3.1 µg/mL and 2.90 µg/mL and 3.88 µg/mL and 3.58 µg/mL
- plasma concentration ([7]; t = 30 min, individual mice): 4.8 µg/mL and 4.21 µg/mL and 4.1 µg/mL and 3.74 µg/mL and 4.24 µg/mL
- plasma concentration ([7]; t = 2 h, individual mice): 2.11 µg/mL and 1.59 µg/mL and 2.1 µg/mL and 2.49 µg/mL and 2.81 µg/mL and 2.4 µg/mL
- plasma concentration ([7]; t = 4 h, individual mice): 0.923 µg/mL and 0.821 µg/mL and 0.777 µg/mL and 0.65 µg/mL
- plasma concentration ([7]; t = 8 h, individual mice): 0.404 µg/mL and 0.433 µg/mL and 0.51 µg/mL and 0.475 µg/mL
- plasma concentration ([7]; t = 16 h, individual mice): 0.03 µg/mL and 0.047 µg/mL and 0.052 µg/mL and 0.072 µg/mL and 0.042 µg/mL
- concentration at 5 min ([7]; Swiss Webster, mouse, in vivo, iv, plasma concentration, t = 5 min, individual mice (duplicates a, b)): 2.88 µg/mL
- concentration at 15 min ([7]; Swiss Webster, mouse, in vivo, iv, plasma concentration, t = 15 min, individual mice): 3.49 µg/mL
- concentration at 30 min ([7]; Swiss Webster, mouse, in vivo, iv, plasma concentration, t = 30 min, individual mice): 3.96 µg/mL
- concentration at 2 h ([7]; Swiss Webster, mouse, in vivo, iv, plasma concentration, t = 2 h, individual mice): 1.59 µg/mL
- concentration at 4 h ([7]; Swiss Webster, mouse, in vivo, iv, plasma concentration, t = 4 h, individual mice): 0.614 µg/mL
- concentration at 8 h ([7]; Swiss Webster, mouse, in vivo, iv, plasma concentration, t = 8 h, individual mice): 0.33 µg/mL
- Absolute Bioavailability (%) ([8]; IP Route relative to IV): 43%
- AUC ([8]; IP Route, Motor1.ABZ (681 and 3.2 mg/kg)): 6.15 µg·h/mL
- Cmax ([8]; IP Route, one injection of Motor1.ABZ (681 and 3.2 mg/kg), plasma): 2.62 µg/mL
- tmax ([8]; IP administration, Motor1.ABZ (681 and 3.2 mg/kg)): 0.25 h
- plasma concentration ([8]; t = 5, individual mice): 0.298 µg/mL and 0.400 µg/mL and 0.817 µg/mL and 0.816 µg/mL and 0.6 µg/mL
- plasma concentration ([8]; t = 15 min, individual mice): 2.46 µg/mL and 2.16 µg/mL and 2.91 µg/mL and 2.934 µg/mL
- plasma concentration ([8]; t = 30 min, individual mice): 2.35 µg/mL and 2.65 µg/mL and 2.32 µg/mL and 2.48 µg/mL
- plasma concentration ([8]; t = 2 h, individual mice): 1.06 µg/mL and 0.564 µg/mL and 0.463 µg/mL and 0.764 µg/mL and 0.888 µg/mL
- plasma concentration ([8]; t = 4 h, individual mice): 0.417 µg/mL and 0.361 µg/mL and 0.431 µg/mL and 0.091 µg/mL
- plasma concentration ([8]; t = 8 h, individual mice): 0.158 µg/mL and 0.131 µg/mL
- concentration at 15 min ([8]; Swiss Webster, mouse, in vivo, ip, plasma concentration, t = 15 min, individual mice): 2.82 µg/mL
- concentration at 30 min ([8]; Swiss Webster, mouse, in vivo, ip, plasma concentration, t = 30 min, individual mice): 3.05 µg/mL
- concentration at 8 h ([8]; Swiss Webster, mouse, in vivo, ip, plasma concentration, t = 8 h, individual mice): 0.183 µg/mL
- concentration at 16 h ([8]; Swiss Webster, mouse, in vivo, ip, plasma concentration, t = 16 h, individual mice): 0.044 µg/mL

Molecule: O=C1N2CN3C(=O)N4CN5C(=O)N6CN7C(=O)N8CN9C(=O)N%10CN%11C(=O)N%12CN%13C(=O)N%14CN1C1C2N2CN%15C(=O)N(CN%16C(=O)N(CN%17C(=O)N(CN%18C(=O)N(CN%19C(=O)N(CN%20C(=O)N(CN1C2=O)C%14C%13%20)C%12C%11%19)C%10C9%18)C8C7%17)C6C5%16)C4C3%15 (stereo not drawn) [CB[7]]
- Solubility [9]: ≈ 20 mM

- Solubility enhancement [10]: 354 fold
Molecule: C(=C\c1ccccc1)/CN1CCN(C(c2ccccc2)c2ccccc2)CC1 [Cinnarizine]

- Solubility enhancement [10]: 1220 fold
Molecule: COC(=O)[C@H](c1ccccc1Cl)N1CCc2sccc2C1 [Clopidogrel]

Molecule: CN(C)c1ccc(C(=C2C=CC(=[N+](C)C)C=C2)c2ccc(N(C)C)cc2)cc1 [Crystal Violet Dye, Crystal Violet]
- Ka [11]: 5.2 ± 0.8 × 10^6

- revertant colonies, positive control ([2]; 6 μg/plate): 361 colonies
Molecule: COc1cccc2c1C(=O)c1c(O)c3c(c(O)c1C2=O)C[C@@](O)(C(C)=O)C[C@@H]3O[C@H]1C[C@H](N)[C@H](O)[C@H](C)O1 [Daunomycin]

Molecule: CC[C@H]1OC(=O)[C@H](C)[C@@H](O[C@H]2C[C@@](C)(OC)[C@@H](O)[C@H](C)O2)[C@H](C)[C@@H](O[C@@H]2O[C@H](C)C[C@H](N(C)C)[C@H]2O)[C@](C)(O)C[C@@H](C)C(=O)[C@H](C)[C@@H](O)[C@]1(C)O [Erythromycin]
- cell viability (MTS) [12]: 47%
- cell death (AK) [13]: 25%
- cell viability (MTS) [14]: 36%

Molecule: COc1ccc2nc3cc(Cl)ccc3c(NCCCNCCCl)c2c1 [ICR 191 Acridine]
- revertant colonies, positive control ([4]; −S9): 91 colonies

Molecule: N[C@@H](Cc1ccc(N(CCCl)CCCl)cc1)C(=O)O [Melphalan]
- Solubility enhancement [10]: 655 fold

Molecule: CC[C@@]1(O)C(=O)OCc2c1cc1n(c2=O)Cc2cc3ccccc3nc2-1 [S-camptothecin]
- Solubility enhancement [15]: 580 fold

Molecule: CC(=O)O[C@H]1C(=O)[C@@]2(C)[C@H]([C@H](OC(=O)c3ccccc3)[C@]3(O)C[C@H](OC(=O)[C@H](O)[C@@H](NC(=O)c4ccccc4)c4ccccc4)C(C)=C1C3(C)C)[C@]1(OC(C)=O)CO[C@@H]1C[C@@H]2O [Taxol]
- DNA fragmentation and cell death in comparison to untreated [16]: little to no cell death
- DNA fragmentation and cell death in comparison to untreated [17]: little to no cell death
- Solubility enhancement [10]: 2750 fold
- Ka [18]: 19000 M⁻¹
- Ka [19]: 31000 M⁻¹

Molecule: Nc1ccc(N)cc1 [benzene-1,4-diamine]
- Ka [11]: 3.5 ± 0.2 × 10^5

Molecule: NCCCCN [butane-1,4-diamine]
- Ka [11]: 1.2 ± 0.1 × 10^5

Molecule: CCC(=O)O[C@H]1[C@H](O[C@@H]2[C@@H](C)[C@H](O[C@H]3C[C@@](C)(OC)[C@@H](O)[C@H](C)O3)[C@@H](C)C(=O)O[C@H](CC)[C@@](C)(O)[C@H](O)[C@@H](C)C(=O)[C@H](C)C[C@@]2(C)O)O[C@H](C)C[C@@H]1N(C)C [erythromycin estolate]
- cell death (AK) [20]: 100%
- cell viability (MTS) [12]: 11%
- cell death (AK) [13]: 49%
- cell viability (MTS) [14]: 10%

- Solubility enhancement [15]: 56 fold
Molecule: COc1ccc2c(c1)c(CC(=O)O)c(C)n2C(=O)c1ccc(Cl)cc1 [indomethacin]

Molecule: [N-]=[N+]=[N-] [sodium azide]
- revertant colonies, positive control [21]: 167 colonies
- revertant colonies, positive control [22]: 232 colonies

Molecule: C[N+](C)(C)CCOC(=O)CCC(=O)OCC[N+](C)(C)C [succinyl choline]
- Ka [11]: 1.9 ± 0.1 × 10^5

Molecule: O=C(O)CCSC[C@H]1O[C@@H]2O[C@H]3[C@H](O)[C@@H](O)[C@@H](O[C@H]4[C@H](O)[C@@H](O)[C@@H](O[C@H]5[C@H](O)[C@@H](O)[C@@H](O[C@H]6[C@H](O)[C@@H](O)[C@@H](O[C@H]7[C@H](O)[C@@H](O)[C@@H](O[C@H]8[C@H](O)[C@@H](O)[C@@H](O[C@H]9[C@H](O)[C@@H](O)[C@@H](O[C@H]1[C@H](O)[C@H]2O)O[C@@H]9CSCCC(=O)O)O[C@@H]8CSCCC(=O)O)O[C@@H]7CSCCC(=O)O)O[C@@H]6CSCCC(=O)O)O[C@@H]5CSCCC(=O)O)O[C@@H]4CSCCC(=O)O)O[C@@H]3CSCCC(=O)O [sugammadex]
- effects on QT interval [23]: no relevant effects

- Solubility enhancement [15]: 37 fold
Molecule: Cc1c(Cl)cccc1Nc1ccccc1C(=O)O [tolfenamic acid]

Molecule: hydroxypropyl-β-CD [HP-β-CD]
- interference with the hERG [24]: significant, non-dose dependent interference
